Experimental data from patent US20240016783A1 (Icahn School of Medicine at Mount Sinai, priority 2020, published 2024).

Legend:
[1] = test system: Alzheimer's disease patients; conditions: in vivo
rodents = conditions: through clustering of dendritic spines; cited from earlier work
rodent models = conditions: cited from earlier work
[2] = test system: mouse model of AD (SXFAD); conditions: early-onset aggressive mouse model of AD (SXFAD); cited from earlier work

Nc1nc2ccc(OC(F)(F)F)cc2s1 [Riluzole, 2-Amino-6-(trifluoromethoxy)benzothiazole]
Abdominal discomfort ([1]; human, 6 months): 15.4%
Adverse event that led to removal from the trial ([1]; human, 6 months): 15.4%
Cough ([1]; human, 6 months): 19.23%
Diarrhea ([1]; human, 6 months): 15.4%
Dizziness ([1]; human, 6 months): 15.4%
Elevated liver enzymes ([1]; human, 6 months): 7.7%
Nausea ([1]; human, 6 months): 7.7%
Patients having at least one adverse event during the study ([1]; human, 6 months): 88.5%
Serious adverse events ([1]; human, 6 months): 7.7%
Urinary frequency ([1]; human, 6 months): 11.5%
Difference in adverse events between treatment groups [1]: no statistical differences
Age-related cognitive decline (rodents): can prevent age-related cognitive decline
Gene expression profiles related to aging and AD (rodent models): rescues gene expression profiles related to aging and AD
Gene expression changes in immune pathways [2]: reversed many of the gene expression changes in immune pathways
Hippocampal-dependent spatial memory decline [2]: prevented hippocampal-dependent spatial memory decline
